In patent US7589100B2, “Non-hygroscopic and powdery amorphous pimecrolimus” (TEVA Gyógyszergyár Zártkörún Müködö Részvénytársaság, priority 2004, dated 2009):

Assay: Hygroscopicity: water content (LOD) of samples stored at different relative humidity for one week
Format: physicochemical
Text: As used herein, the term “non-hygroscopic” refers to a compound that contains no more than about 2% wt/wt of water, more preferably no more than about 1.5% wt/wt of water, most preferably no more than about 1% wt/wt of water, when exposed to 80% humidity, at room temperature for 1 week. The hygroscopicity of amorphous pimecrolimus of the present invention was examined by measuring the water content in samples stored at different relative humidity value (RH) (0, 40, 60, and 80 percent) for a period of one week.

## CC[C@@H]1/C=C(\C)C[C@H](C)C[C@H](OC)[C@H]2O[C@@](O)(C(=O)C(=O)N3CCCC[C@H]3C(=O)O[C@H](/C(C)=C/[C@@H]3CC[C@H](Cl)[C@H](OC)C3)[C@H](C)[C@@H](O)CC1=O)[C@H](C)C[C@@H]2OC [Pimecrolimus, (1R,9S,12S,13R,14S,17R,18E,21 S,23S,24R,25S,27R)-12-[(1E)-2-{(1R,3R,4S)-4-chloro-3-methoxycyclohexyl}-1-methylvinyl]-17-ethyl-1,14-dihydroxy-23,25-dimethoxy-13,19,21,27-tetramethyl-11,28-dioxa-4-aza-tricyclo[22.3.1.0^4,9]octacos-18-ene-2,3,10,16-tetraone]
RH 0 to 80 percent, one week
  hygroscopicity (result in words): non-hygroscopic
Original sample, before storage
  LOD (%): 1.1%
Stored at RH 0 % for one week
  LOD (%): 0.8%
Stored at RH 40 % for one week
  LOD (%): 1.1%
Stored at RH 60 % for one week
  LOD (%): 1.1%
Stored at RH 80 % for one week
  LOD (%): 1.1%
Stored at relative humidity from about 0 percent to about 80 percent, one week
  water content of the samples: about 1%
